Series [1] is described as follows: Quantum yields / fluorescence emission against fluorescein standard. Type of series: physicochemical. The note with it: for λmax (Em, nm): HEPES 50 mM, pH 7.5, KCl 100 mM; for Φ: fluorescein standard. As for the experimental part: (§1) The above results were obtained using the following experimental methods. For all fluorescence experiments, the glassware was washed sequentially with 20% HNO3, deionized water, and ethanol before use. Purified water (resistivity […]) was obtained from a Millipore Milli-Q water purification system. Fluorophore stock solutions in DMSO were made up to concentrations of 1 mM and kept at 4° C. in 100-500 μL aliquots. Portions were thawed and diluted to the required concentrations immediately prior to each experiment. Fluorescence and absorption data were acquired in HEPES buffer (50 mM, pH 7.5, KCl 100 mM) except where otherwise noted. Solutions were transferred to clean, dry propylene containers for storage, and filtered through 0.25 μm syringe filters before data acquisition. Fluorescence spectra were measured from 475 nm to 650 nm. All measurements were performed in triplicate.
Quantum Yields. Quantum yields were calculated by recording UV-vis spectra of the fluorophore under study and a 1 μM fluorescein standard in 0.1 N NaOH to determine the wavelength where sample and fluorescein absorption were equal. The fluorescence spectrum of each was then recorded, exciting at the wavelength determined by uv-vis spectra comparison. The integrated emission of the sample was normalized to the fluorescein standard and multiplied by the standard quantum yield of 0.95. Brannon, J. H.; Magde, D. J. Phys. Chem. 1978, 82, 705-709.

Series [2] can be described thus: Extinction coefficients / absorption spectra in HEPES buffer. The note with it: for λmax (Abs, nm): HEPES 50 mM, pH 7.5, KCl 100 mM. The format is physicochemical. As to the method: as §1
Extinction Coefficients. A 2 mL portion of HEPES buffer was titrated with 2 μL aliquots of 1 mM fluorophore stock solution and the absorption measured at each concentration. The absorbance at the maximum was plotted as a function of concentration, and the slope was taken as the extinction coefficient. The procedure was repeated using 1.9 mL portions of HEPES buffer containing 100 μL aliquots of 10 mM ZnCl2 solution.

The test system of another series is HeLa cells. The experiment in a line: Cell permeability studies using Zn-pyrithione, fluorescence microscopy. Type of series: cell-based. The note with it: 5 μM ligand 30 min RT, 10 μM Zn^2+-pyrithione. As to the method: FIG. 10 depicts phase contrast (A) and fluorescence microscopy (B) visualization of HeLa cells treated with the ligands of Formula 101, 103, and 31 in the absence of zinc. Cells were bathed in 5 μM ligand for 30 min at RT, followed by untreated PBS for 10 min.
FIG. 11 depicts phase contrast (A) and fluorescence microscopy (B) visualization of HeLa cells treated with the ligands of Formula 101, 103, and 31 in the presence of zinc. Cells were bathed in 5 μM ligand for 30 min at RT, followed by 10 μM Zn^2+-pyrithione.
FIG. 12 depicts phase contrast (A) and fluorescence microscopy (B) visualization of HeLa cells treated with the ligands of Formula 100, 102, and 31 in the absence of zinc. Cells were bathed in 5 μM ligand for 30 min at RT, followed by untreated PBS for 10 min.
FIG. 13 depicts phase contrast (A) and fluorescence microscopy (B) visualization of HeLa cells treated with the ligands of Formula 100, 102, and 31 in the presence of zinc. Cells were bathed in 5 μM sensor for 30 min at RT, followed by 10 μM Zn^2+-pyrithione.

The conditions of series [3]: reported elsewhere; cited from earlier work.
The conditions of series [4]: metal-free; reported elsewhere; cited from earlier work.
A short description of series [5]: Protonation constants that affect fluorescence of Zinpyr dyes. Type of series: physicochemical. The settings on record: for pKa: aqueous solution of 100 mM KCl, 10 mM KOH, Zinpyr-6 value estimated from preliminary results. As to the method:
Studies of Protonation Constants that Effect Fluorescence. The apparent protonation constants that affect fluorescence are determined by plotting the integrated emission intensity versus pH from ˜12.5 to 2. In a typical experiment, a 30 mL solution of 1 μM Zinpyr in 100 mM KCl, 10 mM KOH is adjusted to pH 12.5 by drop-wise addition of KOH. Aliquots of 6 N, 2 N, 1 N, 0.5 N, 0.5 N, 0.1 N, and 0.01 N HCl are added to achieve pH changes of approximately […], and the emission spectrum is gathered at each interval. The overall volume change for each experiment is monitored so as not to exceed ˜3%. Excitation is provided at 498 nm for Zinpyr-5 and at 500 nm for Zinpyr-6. Data is integrated from 505 nm to 650 nm, normalized and plotted against pH. The data were fit to the non-linear expression previously described. Godwin, H. A.; Berg, J. M. J. Am. Chem. Soc. 1996, 118, 6514-6515.

A short description of series [6]: Quantum yield and emission measurements of Zinpyr dyes. Type of series: physicochemical. As to the method: (§2) General Spectroscopic Methods. PIPES (piperazine-N,N′-bis(2-ethanesulfonic acid) from Calbiochem, KCl (99.997%), and ZnCl2 (99.999%) are purchased and used as received. All experiments for this Example Eight, with the exception of the pKa experiment, are conducted under stimulated physiological conditions using 50 mM PIPES, 100 mM KCl adjusted to pH 7 via drop-wise addition of KOH. Millipore water is used for all aqueous solutions, which are filtered through a 0.2 μm cellulose filter prior to use (buffered dye solutions should not be put through the filters because the dyes will get stuck). An Orion glass electrode, which is calibrated prior to each use, is used to determine solution pH. The accuracy of each micropipette is verified prior to use. Zinc solutions are prepared from 100 mM and 10 mM stock solutions in water (pH 5). The concentrations of the stock solutions is verified by spectrophotometric titration with 2,2′:6′,2″-terpyridine, which is was performed a minimum of three times per solution. In a typical titration, 0.5 μL aliquots of a 10 mM (nominal) Zn(II) solution in water is added to a 10 μM solution of terpyridine in 50 mM PIPES, 100 mM KCl, pH 7 prepared from a 100 mM stock solution in DMSO. The equivalence point at 321 nm and at 291 nm is determined and used to calculate the Zn(II) concentration. Stock solutions of Zinpyr-5 (0.76 mM) and Zinpyr-6 (0.41 mM) in DMSO are prepared, stored at −25° C., and thawed in the dark immediately prior to use. All spectral data are manipulated with the KaleidaGraph software package.
Fluorescence Spectroscopy. Emission spectra are obtained using a Hitachi F-3010 spectrofluorimeter linked to a Pentium PC running the SpectraCalc software package. A 150 W Xe lamp (Ushio Inc.) operating at a current of 5 A provides the excitation. A rhodamine quantum counter is used to normalize the spectra for excitation intensity, and manufacturer-supplied correction curves are used to normalize the emission spectra. Manufacturer supplied photomultiplier curves are used to correct for emission intensity. A circulating water bath is used during all experiments to regulate the temperature at 25.0° C.±0.1° C. All spectra are obtained using 3 nm slit widths and a 240 nm/min scan speed, and all samples are contained in a 1 cm×1 cm quartz cuvette with a 3.5 mL volume. All measurements are made in triplicate, with the exception of the Zinpyr-6 pKa titration, and on different days to assure the authenticity of the results.
Quantum Yield Measurements. The quantum yields of Zinpyr-5 and Zinpyr-6 are determined using a solution of fluorescein in 0.1 N NaOH (φ=0.95) as a reference. In a typical experiment, a 6 mL solution of 1 μM Zinpyr is prepared. For metal-free studies, 6 μL of 100 mM K4EDTA is added to chelate any adventitious metal ions. To determine the quantum efficiencies of the metal-bound dyes, either 2 μL (Zinpyr-5) or 6 μL (Zinpyr-6) of a 100 mM ZnCl2 stock solution is added to a 1 μM Zinpyr solution. The concentration of the reference solution is adjusted to match the excitation spectra of the Zinpyr dye, and the appropriate excitation wavelength is determined from where the reference and probe excitation spectra intersect. Excitation is provided at 497 nm (Zinpyr-5 and Zinpyr-6, metal-free), 491 nm (Zinpyr-5, metal-bound), or 493 (Zinpyr-6, metal-bound). Emission spectra are integrated from 450-650 nm and the quantum yields were calculated using the standard equation. Godwin, H. A.; Berg, J. M. J. Am. Chem. Soc. 1996, 118, 6514-6515.

A short description of series [7]: Zn(II) binding studies (fluorescence spectroscopy), dual-metal buffering system, Zinpyr dyes. The note with it: titration with dual-metal buffering system, 0.17 nM to 25 nM free Zn(II). As to the method:
General Spectroscopic Methods. PIPES (piperazine-N,N′-bis(2-ethanesulfonic acid) from Calbiochem, KCl (99.997%), and ZnCl2 (99.999%) are purchased and used as received. All experiments for this Example Eight, with the exception of the pKa experiment, are conducted under stimulated physiological conditions using 50 mM PIPES, 100 mM KCl adjusted to pH 7 via drop-wise addition of KOH. Millipore water is used for all aqueous solutions, which are filtered through a 0.2 μm cellulose filter prior to use (buffered dye solutions should not be put through the filters because the dyes will get stuck). An Orion glass electrode, which is calibrated prior to each use, is used to determine solution pH. The accuracy of each micropipette is verified prior to use. Zinc solutions are prepared from 100 mM and 10 mM stock solutions in water (pH 5). […] The equivalence point at 321 nm and at 291 nm is determined and used to calculate the Zn(II) concentration. […]
Zn(II) Binding Studies (Fluorescence Spectroscopy). The dissociation constants, Kd, for Zn(II) binding were determined using a dual-metal buffering system, which affords concentrations of free Zn(II) in the nM range. […] The response was quantified by integrating the emission intensity from 505-650 nm and normalizing. […]
The binding affinities for Zinpyr-5 and Zinpyr-6 were determined using the dual-metal buffering system previously described. […]

The nature of series [8]: Metal ion selectivity measurements of Zinpyr dyes. The settings on record: 1 μM Zinpyr, divalent first-row transition metals and Cd(II). As to the method: Metal Ion Selectivity Measurements. The metal ion selectivity of Zinpyr-5 and Zinpyr-6 for a number of divalent first-row transition metals, in addition to cadmium, is investigated using fluorescence spectroscopy. Aqueous metal ion solutions for Ca(II), Mg(II), Mn(II), Co(II), Ni(II) and Cd(II) are prepared from the chloride salts and Millipore water. The Cu(II) solution are prepared from copper sulfate and Fe(II) solutions are prepared immediately before use with ferrous ammonium sulfate and Millipore water that was thoroughly purged with Ar. In a typical experiment, 15 μL of a ˜10 mM metal solution is added to a 1 μM Zinpyr solution (3 mL) and the emission spectra is recorded with excitation at 498 nm (Zinpyr-5) or 500 nm (Zinpyr-6). […] of 10 mM ZnCl2 is then added and the emission spectra is obtained. The spectra are integrated from 505-650 nm (Zinpyr-5) or 450-650 nm (Zinpyr-6) and normalized.

A short description of series [9]: UV-visible spectroscopy of Zinpyr dyes (excitation maxima, molar absorptivity). The format is physicochemical. The note with it: for ε: at excitation maximum. As for the experimental part: as §2
UV-Visible Spectroscopy. Excitation spectra are obtained using a Cary IE scanning spectrophotometer controlled by a Pentium PC running the manufacturer supplied software program. A circulating water bath is used during all acquisitions to maintain the temperature at 25.0° C.±0.1° C. All data are collected using a 600 nm/min scan speed and a 1 nm data interval. […] Molar absorptivity values are determined from a minimum of three titrations over a concentration range of 10 μM to 1 μM. […]

Series [10] can be described thus: Affinity of compound 30 for Zn2+. The format is binding.
Setting [11] is: metal-free, 50 mM PIPES, 100 mM KCl, pH 7.

Molecules are shown by their SMILES. “And” between values parts separate entries of the source, which are not always exact repeats. Equal values may be shown once. Read-outs that look alike come from different tables or passages of the source.

In the case of `O=C(O)c1ccc2c(c1)C(=O)OC21c2cc(Cl)c(O)c(CN(Cc3ccccn3)Cc3ccccn3)c2Oc2c1cc(Cl)c(O)c2CN(Cc1ccccn1)Cc1ccccn1` [Formula 101], in series [1] (+Zn^2+ complex), the Brightness was 5.5 × 10^4; the “λmax (Em, nm)” value is 532 nm; the Φ was found to be 0.62. In addition, in series [1] (free ligand), the Brightness is 1.4 × 10^4; the “λmax (Em, nm)” value stood at 536 nm; the Φ is listed as 0.17. Besides, in series [2] (+Zn^2+ complex), the εmax stood at 88000 M⁻¹ cm⁻¹ and the “λmax (Abs, nm)” value is on record as 509 nm. Further, in series [2] (free ligand), the εmax amounted to 81000 M⁻¹ cm⁻¹ and the “λmax (Abs, nm)” value was determined as 520 nm. Further, the uptake into cells entry in the series on HeLa cells is on record as “not taken up by the cell”.
Regarding `COc1ccc(NCc2c(O)ccc3c(-c4ccccc4C(=O)O)c4cc(Cl)c(=O)cc-4oc23)c(CN(Cc2ccccn2)Cc2ccccn2)c1` [Zinpyr-3], the “fluorescence change upon addition of Zn(II)” value in [3] is “negligible”. In addition, the quantum efficiency in series [4] is 0.04.
The term pKa denotes the pH at which an ionisable group is half protonated. In the case of `O=C(O)c1ccccc1-c1c2cc(Cl)c(=O)cc-2oc2c(CNc3ccc(Cl)cc3CN(Cc3ccccn3)Cc3ccccn3)c(O)ccc12` [Zinpyr-6], the “pH at which maximum emission is reached” value in series [5] (Zinpyr-6 data preliminary) was around 5. Further, the pKa was around 10 in [5] (read-out: apparent pKa, first protonation event (fluorescence enhancement; tertiary amine)); around 6.4 in series [5] (read-out: apparent pKa, second protonation event (fluorescence enhancement; aniline nitrogen)); around 4.6 in series [5] (read-out: apparent pKa, third protonation event (fluorescence quenching)). For the same compound, in [6], the “increase in brightness upon Zn(II) coordination” value is 3.8 fold and 3.7 fold. Besides, in series [6], the “increase in quantum efficiency upon addition of excess Zn(II)” value amounted to 3.4 fold. Further, the “brightness (φ×ε)” value in series [6] (Zn(II) bound) is 33,000 M^−1 cm^−1; in series [6] (metal-free), 8,900 M^−1 cm^−1. For the same compound, the values for the emission maximum in [6] (Zn(II) bound) and in series [6] (setting [11]) were 515 nm and 519 nm, respectively. Further, the quantum efficiency amounted to 0.34 in [6] (Zn(II) bound) and 0.10 in series [6] (setting [11]). Further, the “increase in integrated emission” value in series [7] is 2.5- to 3 fold and ~3 fold. Also, the metal ion selectivity result in series [8] was “Zn(II) and Cd(II) selective”. Further, the excitation maximum in [9] (Zn(II) bound) is on record as 495 nm. Also, the results for the ε in [9] (Zn(II) bound) and in series [9] (metal-free) were 98,000 M^−1 cm^−1 and 88,600 M^−1 cm^−1, respectively.
Consider `O=C(O)c1ccccc1-c1c2cc(Cl)c(=O)cc-2oc2cc(N(Cc3ccccn3)Cc3ccccn3)ccc12` [compound 30, 9-(o-Carboxyphenyl)-2-chloro-6-[bis(2-pyridylmethyl)amino]-3-xanthanone], for which the “affinity for Zn^2+” value in series [10] is recorded as “weak”.

These data come from patent US7399639B2, “Sensors, and methods of making and using the same” (Massachusetts Institute of Technology, priority 2003, dated 2008).
